From patent publication US10117854B2, “Method for treating hepatic encephalopathy” (MEDDAY PHARMACEUTICALS, priority 2016, dated 2018)
Read-outs that look alike come from different tables or passages of the source.

Experiments:
[1] = system: BDL rats; assay: Open Field Test (behavioral test of hepatic encephalopathy); assay type: in vivo, rat; details: for OpenField test results compared with high-dose biotin: data not shown
Protocol: Bile duct ligation (BDL) was used as a biliary cirrhosis model. All rats oh this group were operated on. They were randomly separated in two groups: BDL or simple laparotomy (SHAM, control-group). The BDL procedure was conducted as described previously (Kountouras J, Prolonged bile duct obstruction: a new experimental model for cirrhosis in the rat; Br J Exp Pathol 1984) and as controlled in our lab. Surgery was done under total anesthesia with […] isofluran (Aerrane, Baxter Maurepas) 3% mixed with air. Analgesia was done by sub-cutaneous injection of buprenorphin 2% (Buprécare 0.3 mg/ml, Axience) immediately before and after surgery. Rifaximin (Sigma Aldrich) was mixed with water at the dose of 50 mg/kg/d and began 3 days after the surgery. […] To assess the hepatic encephalopathy, the Open Field Test (BioSeb) was used, a behavioral test validated in BDL rats to explore neurological impairments (Leke, Plos One 2012; 7(5)). The test was done the day of sacrifice, in standardized experimental conditions (hour, place, light, noise). Each rat was placed in a square 1 m^2 box and was free to explore the arena during 6 minutes. Two areas were defined in the square, center and periphery. Mobility parameters were registered by a three-dimensional camera. The data analyzed after 6 minutes of experiments were: total distance travelled (cm), time of mobility (s), speed (cm/s), number of zone changes, distance travelled in the center and periphery zone, time spent in the center and periphery zone, number of rearing, total duration of rearing.

[2] = system: BDL rats; assay: Blood ammoniemia in bile duct ligated rats; assay type: in vivo, rat; details: biotin 300 mg/kg of food (30 mg/kg BW/day), ANOVA p=0.01, FIG. 6
Protocol: Adult male Wistar rats (weight 175-200 g at the initiation of the surgical procedure) were obtained from the Janvier labs (Le Gesnest-Saint-Isle) and were used for the whole experiments.
Bile duct ligation (BDL) was used as a biliary cirrhosis model. All rats oh this group were operated on. They were randomly separated in two groups: BDL or simple laparotomy (SHAM, control-group). The BDL procedure was conducted as described previously (Kountouras J, Prolonged bile duct obstruction: a new experimental model for cirrhosis in the rat; Br J Exp Pathol 1984) and as controlled in our lab. Surgery was done under total anesthesia with inhalated isofluran (Aerrane, Baxter Maurepas) 3% mixed with air. Analgesia was done by sub-cutaneous injection of buprenorphin 2% (Buprécare 0.3 mg/ml, Axience) immediately before and after surgery.
(§1) The blood sample taken during the sacrifice was centrifuged and the plasma was used to determine the levels of hepatic transaminases, total and conjugated bilirubin and ammonia. Plasmatic cytokines (IL6, TNFa, IFNg) were determined by a multiplex commercial kit.

[3] = in vivo; cited from earlier work
[4] = system: IFNγ; assay: Plasmatic cytokines by multiplex kit; assay type: in vivo, rat; details: BDL rats treated with biotin (300 mg/kg food)
Protocol: as §1

[5] = system: rats, acute liver failure induced by single high dose of CCl4; details: prior art; biotin 0.5 mg/kg BW single intraperitoneal injection, or oral with uncontrolled amount; cited from earlier work
[6] = system: BDL rats
Protocol: The integrity of BBB was investigated by measuring the extravasation from intra-vascular compartment of dextran-Texas Red (Life Technologies) conjugated.
Six weeks after the surgery, all rats were anesthetized with inhaleted isofluran 3%. 0.75 ml of fluorochrome was injected in the femoral vein (Texas Red 10 kDa 10 mg/ml) and circulated during 6 minutes. […] To remove the intravascular localized dye, we did a large thoracotomy to perfuse 300 ml of cold PBS (40 ml/min with a peristaltic pump) through the left cardiac ventricle.
After decapitation, the brain was rapidly removed and the olfactory bulbs and brain stem eliminated with the cerebellum.
After grinding the right hemisphere by vigorously shaking and centrifugation, the amount of fluorescent dextran (μg/g) in supernatants was measured by fluorimetry (Tecan Infinite M200) at 620 nm upon excitation at 588 nm. The content of dye was valued by interpolation in standard curve.

O=C(O)CCCC[C@@H]1SC[C@@H]2NC(=O)N[C@@H]21 [biotin]
neurological impairements observed in the OpenField test ([1]; biotin 50 mg/kg of food (5 mg/kg of animal/day)): not high enough to have an effect
neurological impairements observed in the OpenField test ([1]; biotin 300 mg/kg of food (30 mg/kg of animal/day), vs BDL rats without biotin): reduced
neurological impairements observed in the OpenField test ([1]; biotin 300 mg/kg of food (30 mg/kg of animal/day), vs BDL rats without biotin, listed as Biotin): comportmental improvement
hyperammonemia (blood ammoniemia) [2]: reduce hyperammonemia
plasma half life [3]: about 2 hours
IFNγ levels in plasma [4]: decreased
serum ammonium level [5]: decrease the serum ammonium level
intra-cerebral quantity of dextran (BBB permeability) ([6]; BDL rats, biotin 300 mg/kg of food, vs BDL rats on control diet): normalize
intra-cerebral quantity of dextran (BBB permeability) ([6]; BDL rats, biotin 300 mg/kg of food, vs BDL rats on control diet, listed as Biotin): normalization of BBB permeability
intra-cerebral quantity of dextran (BBB permeability) ([6]; biotin 50 mg/kg of food): did not reach normalization

CO[C@H]1/C=C/O[C@@]2(C)Oc3c(C)c(O)c4c(O)c(c5c(nc6cc(C)ccn65)c4c3C2=O)NC(=O)/C(C)=C\C=C\[C@H](C)[C@H](O)[C@@H](C)[C@@H](O)[C@@H](C)[C@H](OC(C)=O)[C@@H]1C [rifaximin, Rifaximin]
OpenField test results compared with high-dose biotin ([1]; rifaximin 50 mg/kg/d in water): similar

O=C([O-])c1ccccc1.[Na+] [sodium benzoate, Sodium benzoate]
OpenField test results compared with high-dose biotin ([1]; sodium benzoate 200 mg/kg/d in water): similar
